The supplement of paper PMC10307832

What was measured:
Test in all cases: relative viability (nuclei count vs DMSO), 5 days (fraction); higher = more cells survive
[1] = compound: CC1=CC(=NN1)NC2=CC(=NC(=N2)/C=C/C3=CC=CC=C3)N4CCN(CC4)C + CC(C)C[C@H](NC(=O)[C@H](Cc1ccccc1)NC(=O)c1cnccn1)B(O)O [Bortezomib] (partner 0.002 µM)
In short: (§1)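 Lung cancer cell lines in 1536-well plates were dosed by pin tool the day after seeding, either with one drug alone or with a fixed anchor-drug dose plus five library-drug doses (not always all listed) in √10 steps. After 5 days, cells were fixed and their nuclei stained in one step (final 0.05% Triton X-100, 1% formaldehyde, 1 ug/ml Hoechst), then counted on 4× images. Relative viability is the nuclei count in treated wells divided by that in vehicle wells. Values are medians of duplicate plates.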

[2] = compound: COC1=CC(c2cc3ccccc3[nH]2)=N/C1=C\c1[nH]c(C)cc1C [Obatoclax] + CC(=O)Nc1cccc(-n2c(=O)n(C3CC3)c(=O)c3c(Nc4ccc(I)cc4F)n(C)c(=O)c(C)c32)c1 [Trametinib] (partner 0.02 µM)
In short: as §1

[3] = compound: COC1=CC(c2cc3ccccc3[nH]2)=N/C1=C\c1[nH]c(C)cc1C [Obatoclax] + C[C@@H](Oc1cc(-c2cnn(C3CCNCC3)c2)cnc1N)c1c(Cl)ccc(F)c1Cl [Crizotinib] (partner 1 µM)
In short: as §1

[4] = compound: COC1=CC(c2cc3ccccc3[nH]2)=N/C1=C\c1[nH]c(C)cc1C [Obatoclax] + NC(=O)Nc1cc(-c2cccc(F)c2)sc1C(=O)N[C@H]1CCCNC1 [AZD7762] (partner 0.2 µM)
In short: as §1

Row | Cell Line | relative viability ([1]; first compound 0.08 µM) | relative viability ([1]; first compound 0.253 µM) | relative viability ([1]; first compound 0.8 µM) | relative viability ([1]; first compound 2.53 µM) | relative viability ([1]; first compound 8 µM) | relative viability ([2]; first compound 0.01 µM) | relative viability ([2]; first compound 0.03162 µM) | relative viability ([2]; first compound 0.1 µM) | relative viability ([2]; first compound 0.3162 µM) | relative viability ([2]; first compound 1 µM) | relative viability ([3]; first compound 0.01 µM) | relative viability ([3]; first compound 0.03162 µM) | relative viability ([3]; first compound 0.1 µM) | relative viability ([3]; first compound 0.3162 µM) | relative viability ([3]; first compound 1 µM) | relative viability ([4]; first compound 0.01 µM) | relative viability ([4]; first compound 0.03162 µM) | relative viability ([4]; first compound 0.1 µM) | relative viability ([4]; first compound 0.3162 µM) | relative viability ([4]; first compound 1 µM)
1 | HCC-366 | 0.993 | 1.18 | 1.03 | 0.0189 | 0.0155 | 0.348 | 0.323 | 0.321 | 0.245 | 0.228 | 0.63 | 0.554 | 0.468 | 0.533 | 0.354 | 0.289 | 0.218 | 0.184 | 0.227 | 0.243
2 | HCC-827 | 1.03 | 1.13 | 0.951 | 0.923 | 0.641 | 0.523 | 0.512 | 0.734 | 0.475 | 0.595 | 0.86 | 0.847 | 0.957 | 0.876 | 0.772 | 0.244 | 0.234 | 0.215 | 0.202 | 0.261
3 | HOP-62 | 0.9 | 0.549 | 1.07 | 0.403 | 0.107 | 0.406 | 0.318 | 0.389 | 0.388 | 0.408 | 0.837 | 0.911 | 0.998 | 0.796 | 1 | 0.402 | 0.519 | 0.515 | 0.59 | 0.508
4 | LC-2-ad | 0.938 | 1.03 | 0.602 | 0.289 | 0.0902 | 0.954 | 0.859 | 0.885 | 0.905 | 0.969 | 0.424 | 0.455 | – | 0.412 | 0.425 | 0.857 | 0.888 | 0.777 | 0.836 | 0.438
5 | LCLC-97TM1 | 0.742 | 0.57 | 0.77 | 0.114 | 0.0579 | 0.224 | 0.177 | 0.203 | 0.193 | 0.194 | 0.452 | 0.27 | 0.339 | 0.329 | 0.358 | 0.218 | – | 0.203 | 0.229 | 0.206
6 | LCLC-103H | 0.997 | 1.19 | 1.08 | 0.877 | 0.675 | 0.64 | 0.702 | 0.63 | 0.678 | 0.694 | 0.944 | 1.03 | 1.02 | 1.03 | 1.03 | 0.766 | 0.727 | 0.682 | 0.871 | 0.917
7 | LOU-NH91 | 0.403 | 0.472 | 0.537 | 0.474 | 0.358 | 0.766 | 0.784 | 0.717 | 0.723 | 0.592 | 0.768 | 0.628 | 0.703 | 0.874 | 0.759 | 0.703 | 0.717 | 0.646 | 0.667 | 0.539
8 | LU99A | 1.13 | 0.993 | 0.779 | 0.25 | 0.127 | 0.598 | 0.55 | – | 0.631 | 0.557 | 0.614 | 0.498 | 0.569 | 0.236 | 0.233 | 0.379 | 0.359 | – | 0.146 | 0.135
9 | LXF-289 | 0.992 | 0.98 | 0.917 | 0.656 | 0.115 | 0.642 | 0.663 | 0.671 | 0.707 | 0.671 | 0.796 | 0.8 | 0.83 | 0.822 | 0.679 | 1.03 | 1.07 | 1.14 | 1.1 | 1.09
10 | NCI-H23 | 0.909 | 0.949 | 0.826 | 0.196 | 0.139 | 0.384 | 0.442 | 0.451 | 0.357 | 0.363 | 0.555 | 0.507 | 0.469 | 0.527 | 0.282 | 0.271 | 0.313 | 0.192 | 0.219 | 0.158
11 | NCI-H322M | 1.14 | 1.24 | 1.17 | 1.1 | 0.258 | 0.547 | 0.482 | 0.71 | 0.535 | 0.669 | 0.822 | 0.932 | 0.845 | 1.01 | 0.96 | 0.538 | 0.556 | 0.549 | 0.399 | 0.4
12 | NCI-H441 | 0.543 | 0.547 | 0.332 | 0.265 | 0.192 | 0.505 | 0.353 | 0.427 | 0.27 | 0.194 | 0.676 | 0.742 | 0.724 | 0.604 | 0.549 | 1.33 | 1.28 | 1.16 | 0.941 | 1.08
13 | NCI-H460 | 1.07 | 1.1 | 1 | 0.0197 | 0.0105 | 0.151 | 0.132 | 0.232 | 0.0458 | 0.0584 | 0.727 | 0.716 | 0.605 | 0.244 | 0.0446 | 0.651 | 0.537 | – | 0.617 | 0.11
14 | NCI-H596 | 1.2 | 1.01 | 0.756 | 0.616 | 0.268 | 0.814 | 0.784 | 0.692 | 0.652 | 0.565 | 0.987 | 0.898 | 0.946 | 0.655 | 0.565 | 1.06 | 1.1 | 0.773 | 0.443 | 0.498
15 | NCI-H647 | 0.807 | 1.1 | 0.957 | 0.068 | 0.0571 | 0.406 | 0.475 | 0.422 | 0.22 | 0.127 | 0.997 | 1.13 | 0.762 | 0.286 | 0.133 | 0.443 | 0.606 | 0.207 | 0.253 | 0.114
16 | NCI-H727 | 0.841 | 0.586 | 0.867 | 0.463 | 0.255 | 0.41 | 0.393 | 0.414 | 0.404 | 0.391 | 0.828 | 0.792 | 0.832 | 0.87 | 0.605 | 0.747 | 0.552 | 0.827 | 0.573 | 0.573
